In patent US8309734B2 (Hoffmann-La Roche Inc., priority 2008, dated 2012):

Biological target: T1, human GPBAR1 receptor (Homo sapiens, UniProt Q8TDU6)
T1 construct: expressed in transfected cells
T1 sequence (Q8TDU6 1-330): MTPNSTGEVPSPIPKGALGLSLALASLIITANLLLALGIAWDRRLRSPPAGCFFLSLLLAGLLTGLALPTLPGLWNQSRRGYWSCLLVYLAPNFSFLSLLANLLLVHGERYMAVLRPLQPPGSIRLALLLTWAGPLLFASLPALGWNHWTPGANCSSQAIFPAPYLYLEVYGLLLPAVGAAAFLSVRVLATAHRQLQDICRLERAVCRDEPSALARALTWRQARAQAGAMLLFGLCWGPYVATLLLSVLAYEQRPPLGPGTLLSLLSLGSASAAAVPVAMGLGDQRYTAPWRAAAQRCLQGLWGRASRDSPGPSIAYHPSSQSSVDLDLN
Experiment: functional cAMP assay in CHO-dhfr(minus) cells expressing human GPBAR1 receptors
Assay type: cell-based
Conditions: cAMP increase (TR-FRET) in CHO-dhfr(minus) cells expressing human GPBAR1; compounds incubated 30 min at 30° C.
Procedure: The final clone was verified by DNA sequence analysis. The plasmid was transfected into CHO cells deficient in dihydrofolate reductase activity (CHO-dhfr-) using Lipofectamine plus (Invitrogen). Clones were isolated in limited dilution conditions and identified by activities in the cAMP assay using lithocholic acid as agonist.
The growth medium was exchanged with Krebs Ringer Bicarbonate buffer with 1 mM IBMX and incubated at 30° C. for 30 mM. Compounds were added to a final assay volume of 100 μl and incubated for 30 min at 30° C. […] The time-resolved energy transfer is measured by a TRF reader (Evotec Technologies GmbH, Hamburg Germany), equipped with a ND:YAG laser as excitation source. The plate is measured twice with the excitation at 355 nm and at the emission with a delay of 100 ns and a gate of 100 ns, total exposure time 10s at 730 (bandwith 30 nm) or 645 nm (bandwith 75 nm), respectively.
EC50 values were determined using Activity Base analysis (ID Business Solution, Limited). […] Specificity for GPBAR1 was tested in non-transfected CHO cells in the same assay as above.

| Compound | EC50 [nM] |
| --- | --- |
| CCOC(=O)CCCCN1CCN(C(=O)c2cc(F)cnc2Oc2cc(Cl)ccc2Cl)c2ccccc21 [Example 159, 5-{4-[2-(2,5-Dichloro-phenoxy)-5-fluoro-pyridine-3-carbonyl]-3,4-dihydro-2H-quinoxalin-1-yl}-pentanoic acid ethyl ester] | 395 |
| O=C(c1cc(F)cnc1Oc1cccc(Cl)c1)N1CCCc2cc(F)c(F)cc21 [Example 85, [2-(3-Chloro-phenoxy)-5-fluoro-pyridin-3-yl]-(6,7-difluoro-3,4-dihydro-2H-quinolin-1-yl)-methanone] | 231 |
| O=C(c1cccnc1Oc1cc(Cl)ccc1Cl)N1CCCc2ccc(Cl)cc21 [Example 33, (7-Chloro-3,4-dihydro-2H-quinolin-1-yl)-[2-(2,5-dichloro-phenoxy)-pyridin-3-yl]-methanone] | 203 |
| CC(C)c1cccc(Oc2ncccc2C(=O)N2CCCc3ccccc32)c1 [Example 19, (3,4-Dihydro-2H-quinolin-1-yl)-[2-(3-isopropyl-phenoxy)-pyridin-3-yl]-methanone] | 625 |
| O=C(O)CCCc1cc(Cl)c(Oc2ncccc2C(=O)N2CCN(C3CC3)c3ccccc32)cc1Cl [Example 176, 4-{2,5-Dichloro-4-[3-(4-cyclopropyl-3,4-dihydro-2H-quinoxaline-1-carbonyl)-pyridin-2-yloxy]-phenyl}-butyric acid] | 114 |
| CCOC(=O)CN1CCN(C(=O)c2cccnc2Oc2cc(Cl)ccc2Cl)c2ccccc21 [Example 141, {4-[2-(2,5-Dichloro-phenoxy)-pyridine-3-carbonyl]-3,4-dihydro-2H-quinoxalin-1-yl}-acetic acid ethyl ester] | 324 |
| O=C(c1cccnc1Oc1ccc(F)c(Cl)c1)N1CCCc2ncccc21 [Example 78, [2-(3-Chloro-4-fluoro-phenoxy)-pyridin-3-yl]-(3,4-dihydro-2H-[1,5]naphthyridin-1-yl)-methanone] | 128 |
| O=C(c1cccnc1Oc1ccc(F)c(Cl)c1)N1CCCc2cc(F)c(F)cc21 [Example 79, [2-(3-Chloro-4-fluoro-phenoxy)-pyridin-3-yl]-(6,7-difluoro-3,4-dihydro-2H-quinolin-1-yl)-methanone] | 127 |
| Cc1ccc2c(c1)CCCN2C(=O)c1cccnc1Oc1ccc(F)c(Cl)c1 [Example 77, [2-(3-Chloro-4-fluoro-phenoxy)-pyridin-3-yl]-(6-methyl-3,4-dihydro-2H-quinolin-1-yl)-methanone] | 765 |
| Cc1cccc2c1N(C(=O)c1cc(F)ccc1Oc1cc(Cl)ccc1Cl)CCC2 [Example 115, [2-(2,5-Dichloro-phenoxy)-5-fluoro-phenyl]-(8-methyl-3,4-dihydro-2H-quinolin-1-yl)-methanone] | 920 |
| N#Cc1ccc(Oc2cc(Cl)ccc2Cl)c(C(=O)N2CCCc3ccccc32)c1 [Example 119, 4-(2,5-Dichloro-phenoxy)-3-(3,4-dihydro-2H-quinoline-1-carbonyl)-benzo nitrile] | 165 |
| O=C(c1cccnc1Oc1cccc(Br)c1)N1CCCc2ccccc21 [Example 23, [2-(3-Bromo-phenoxy)-pyridin-3-yl]-(3,4-dihydro-2H-quinolin-1-yl)-methanone] | 232 |
| CN(C(=O)c1cccnc1Oc1cc(Cl)ccc1Cl)c1cnccc1Cl [Example 47, N-(4-Chloro-pyridin-3-yl)-2-(2,5-dichloro-phenoxy)-N-methyl-nicotinamide] | 1250 |
| Cc1cc(Cl)ccc1N(C)C(=O)c1cccnc1Oc1cc(Cl)ccc1Cl [Example 56, N-(4-Chloro-2-methyl-phenyl)-2-(2,5-dichloro-phenoxy)-N-methyl-nicotinamide] | 1390 |
| CN(C(=O)c1cccnc1Oc1cc(Cl)ccc1Cl)c1cc(Cl)ccc1Cl [Example 135, 2-(2,5-Dichloro-phenoxy)-N-(2,5-dichloro-phenyl)-N-methyl-nicotinamide] | 473 |
| Cc1ccc(N(C)C(=O)c2cccnc2Oc2cc(Cl)ccc2Cl)c(C)c1 [Example 58, 2-(2,5-Dichloro-phenoxy)-N-(2,4-dimethyl-phenyl)-N-methyl-nicotinamide] | 758 |
| CN(C(=O)c1cccnc1Oc1cc(Cl)ccc1Cl)c1ccc(F)cc1F [Example 66, 2-(2,5-Dichloro-phenoxy)-N-(2,4-difluoro-phenyl)-N-methyl-nicotinamide] | 518 |
| COc1cccc(C)c1N(C)C(=O)c1cccnc1Oc1cc(Cl)ccc1Cl [Example 53, 2-(2,5-Dichloro-phenoxy)-N-(2-methoxy-6-methyl-phenyl)-N-methyl-nicotinamide] | 321 |
| CN(C(=O)c1cccnc1Oc1cc(Cl)ccc1Cl)c1ccccc1-c1ccccc1 [Example 43, N-Biphenyl-2-yl-2-(2,5-dichloro-phenoxy)-N-methyl-nicotinamide] | 496 |
| CN(C(=O)c1cccnc1Oc1cc(Cl)ccc1Cl)c1ccccc1F [Example 63, 2-(2,5-Dichloro-phenoxy)-N-(2-fluoro-phenyl)-N-methyl-nicotinamide] | 170 |
| COc1ncccc1N(C)C(=O)c1ccncc1Oc1ccc(Cl)cc1Cl [Example 102, 3-(2,4-Dichloro-phenoxy)-N-(2-methoxy-pyridin-3-yl)-N-methyl-isonicotinamide] | 703 |
| Cc1ccc(Cl)cc1N(C)C(=O)c1cccnc1Oc1cc(Cl)ccc1Cl [Example 50, N-(5-Chloro-2-methyl-phenyl)-2-(2,5-dichloro-phenoxy)-N-methyl-nicotinamide] | 631 |
| CC(C)CN1CCN(C(=O)c2cccnc2Oc2cc(Cl)ccc2Cl)c2ccccc21 [Example 137, [2-(2,5-Dichloro-phenoxy)-pyridin-3-yl]-(4-isobutyl-3,4-dihydro-2H-quinoxalin-1-yl)-methanone] | 201 |

These reach a lower EC50. Values come first.

| EC50 [nM] | Compound |
| --- | --- |
| 106 | O=C(c1cc(F)cnc1Oc1cc(F)ccc1F)N1CCCc2ccccc21 [Example 26, [2-(2,5-Difluoro-phenoxy)-5-fluoro-pyridin-3-yl]-(3,4-dihydro-2H-quinolin-1-yl)-methanone] |
| 91 | O=C(O)CCNC(=O)CCCc1cc(Cl)c(Oc2ncccc2C(=O)N2CCN(C3CC3)c3ccccc32)cc1Cl [Example 181, 3-(4-{2,5-Dichloro-4-[3-(4-cyclopropyl-3,4-dihydro-2H-quinoxaline-1-carbonyl)-pyridin-2-yloxy]-phenyl}-butyrylamino)-propionic acid] |
| 66 | COc1ncccc1N(C)C(=O)c1cccnc1Oc1cc(Cl)ccc1Cl [Example 48, 2-(2,5-Dichloro-phenoxy)-N-(2-methoxy-pyridin-3-yl)-N-methyl-nicotinamide] |
| 57 | O=C(c1cccnc1Oc1cc(Cl)ccc1Cl)N1CCCc2cc(F)c(F)cc21 [Example 38, [2-(2,5-Dichloro-phenoxy)-pyridin-3-yl]-(6,7-difluoro-3,4-dihydro-2H-quinolin-1-yl)-methanone] |
| 57 | Cc1ccccc1N(C)C(=O)c1ccncc1Oc1cc(Cl)ccc1Cl [Example 93, 3-(2,5-Dichloro-phenoxy)-N-methyl-N-o-tolyl-isonicotinamide] |
| 35 | O=C(c1cccnc1Oc1cc(Cl)ccc1Cl)N1CCN(CC2CC2)c2ccccc21 [Example 138, (4-Cyclopropylmethyl-3,4-dihydro-2H-quinoxalin-1-yl)-[2-(2,5-dichloro-phenoxy)-pyridin-3-yl]-methanone] |
| 29 | O=C(c1cccnc1Oc1cc(Cl)ccc1Cl)N1CCSc2ccccc21 [Example 39, [2-(2,5-Dichloro-phenoxy)-pyridin-3-yl]-(2,3-dihydro-benzo[1,4]thiazin-4-yl)-methanone] |
| 29 | O=C(c1ccccc1Oc1cc(Cl)ccc1Cl)N1CCCc2ccccc21 [Example 110, [2-(2,5-Dichloro-phenoxy)-phenyl]-(3,4-dihydro-2H-quinolin-1-yl)-methanone] |
| 29 | COC(=O)C/C=C/c1cc(Cl)c(Oc2ncccc2C(=O)N2CCN(C3CC3)c3ccccc32)cc1Cl [Example 174, 4-{2,5-Dichloro-4-[3-(4-cyclopropyl-3,4-dihydro-2H-quinoxaline-1-carbonyl)-pyridin-2-yloxy]-phenyl}-but-3-enoic acid methyl ester] |
| 28 | O=C(c1cccnc1Oc1cc(Cl)ccc1Cl)N1CCCc2cc(F)ccc21 [Example 37, [2-(2,5-Dichloro-phenoxy)-pyridin-3-yl]-(6-fluoro-3,4-dihydro-2H-quinolin-1-yl)-methanone] |
| 24 | C=C1CCN(C(=O)c2cccnc2Oc2cc(Cl)ccc2Cl)c2ccccc21 [Example 129, [2-(2,5-Dichloro-phenoxy)-pyridin-3-yl]-(4-methylene-3,4-dihydro-2H-quinolin-1-yl)-methanone] |
| 4 | O=C(c1cccnc1Oc1cc(Cl)ccc1Cl)N1CCN(C2CC2)c2ccccc21 [Example 125, (4-Cyclopropyl-3,4-dihydro-2H-quinoxalin-1-yl)-[2-(2,5-dichloro-phenoxy)-pyridin-3-yl]-methanone] |
